The values below come from patent US11945812B2, “Annulated 2-amino-3-cyano thiophenes and derivatives for the treatment of cancer” (Boehringer Ingelheim International GmbH, priority 2020, dated 2024).

Data set [1] deals with T1, KRAS G12C::SOS1 protein-protein interaction (Homo sapiens, UniProt P01116, C118S/C51S/C80L/G12C).
T1 construct: His6 (N); host or cells: E. coli
The experiment in a line: KRAS::SOS1 AlphaScreen binding assay. An excerpt: KRAS::SOS1 AlphaScreen Binding Assay
Reagents: • GST-tagged SOS1 (564_1049_GST_TEV_ECO) produced in-house • GST-TEV-SOS1 (564-1049) is purchased from Viva Biotech Ltd. • The expression construct of KRAS G12C (amino acids 1-169 of reference sequence P01116-2 (uniprot), with additional mutations: C51S, C80L, and C118S) containing a C-terminal avi-tag was obtained by gene synthesis (GeneArt, Thermo Fisher) in donor vector (pDONR-221) and transferred by recombinant cloning into pDEST17 vector bearing an N-terminal His6-tag. The protein was expressed in E. coli and the purified protein was biotinylated with the E. coli biotin ligase (BirA) before usage. • GDP (Sigma Cat No G7127) • AlphaLISA Glutathione Acceptor Beads (PerkinElmer, Cat No AL109) • AlphaScreen Streptavidin Donor Beads (PerkinElmer Cat No 6760002) • Assay plates: Proxiplate-384 PLUS, white (PerkinElmer, Cat No 6008289)
Assay Buffer: • 1×PBS • 0.1% BSA • 0.05% Tween 20
7.5 nM (final assay concentration) KRAS G12C, 10 μM (final assay concentration) GDP and 5 nM (final assay concentration) GST-SOS1 are mixed in assay buffer prior to use and kept at room temperature.
AlphaLISA Glutathione Acceptor Beads and AlphaScreen Streptavidin Donor Beads are mixed in assay buffer at a concentration of 10 μg/mL (final assay concentration) each prior to use and kept at room temperature.
Compounds are diluted to a final start concentration of 100 μM and are tested in duplicate. Assay-ready plates (ARPs) are generated using an Access Labcyte Workstation with a Labcyte Echo 550 or 555 accoustic dispenser. For compound a start concentration of 100 μM, 150 nL of compound solution is transferred per well in 11 concentrations in duplicate with serial 1:5 dilutions.
The assay is run using a fully automated robotic system in a darkened room below 100 Lux. 10 μL of KRAS::SOS1 GDP mix is added into columns 1-24 to the 150 nL of compound solution (final dilution in the assay 1:100, final DMSO concentration 1%).
After 30 minutes incubation time 5 μL of bead mix is added into columns 1-23. Plates are kept at room temperature in a darkened incubator. After further 60 minutes incubation, the signal is measured using a PerkinElmer Envision HTS Multilabel Reader using the AlphaScreen specifications from PerkinElmer. Each plate contains the following controls: • diluted DMSO+KRAS::SOS1 GDP mix+bead mix • diluted DMSO+KRAS::SOS1 GDP mix
IC50 values are calculated and analyzed using a 4 parametric logistic model.
Tables of example compounds disclosed herein contain IC50 values determined using the above assay.
In general terms: Alpha assays give light when donor and acceptor beads are brought close together.

Data set [2] has as its target Ba/F3 cells bearing a KRAS G12C mutation (Homo sapiens, UniProt P01116, G12C, cells depend on it). Nature of the data set: Ba/F3 cell model proliferation assay (AlamarBlue, 72 h). The class given is cell-based. The following applies: Ba/F3 KRAS G12C cells, 72 h, 10% FCS, uncorrected; read-out: IC50 Ba/F3 KRASG12C. Here is the method:
Ba/F3 Cell Model Generation and Proliferation Assay
Plasmids containing KRASG12 mutants were obtained from GeneScript. To generate KRASG12-dependent Ba/F3 models, Ba/F3 cells were transduced with retroviruses containing vectors that harbor KRASG12 isoforms. Platinum-E cells (Cell Biolabs) were used for retrovirus packaging. Retrovirus was added to Ba/F3 cells. To ensure infection, 4 μg/mL polybrene was added and cells were spinfected. […] Cells with an infection efficiency of 10% to 20% were further cultivated and puromycin selection with 1 μg/mL was initiated. As a control, parental Ba/F3 cells were used to show selection status. Selection was considered successful when parental Ba/F3 cells cultures died. To evaluate the transforming potential of KRASG12 mutations, the growth medium was no longer supplemented with IL-3. Ba/F3 cells harboring the empty vector were used as a control. Approximately ten days before conducting the experiments, puromycin was left out.
All treatments were performed in technical duplicates. The assay is run using a fully automated robotic system. Treated cells were incubated for 72 h at 37° C. with 5% CO2. AlamarBlue™ (ThermoFisher), a viability stain, was added and fluorescence measured in the PerkinElmer Envision HTS Multilabel Reader.

A further data set relates to SW837 cells. Nature of the data set: SW837 CTG proliferation assay (CRC). The class given is cell-based. To be noted: Homo sapiens. Here is the method:
SW837 CTG Proliferation Assay (CRC)
SW837 cells (ATCC #CCL-235) were grown in cell culture flasks (175 cm^2) using L-15 10% FCS, 1% L-Glu, 1×NEAA and 1×Na-Pyrovat. Cultures were incubated at 37° C. and 0% CO2 in a humidified atmosphere, with medium change or subcultivation 2-3 times a week. Materials used for the assay were CulturPlate-384, White Opaque 384-well Microplate, Sterile and Tissue Culture Treated (Perkin Elmer #6007680), Leibovitz L15 Medium and FBS # SH30071.03 (HyClone).
(§1) The proliferation assays started (day1) with seeding cells in flat bottom 384 well microtiter plates in 90 μL L-15 10% FCS, 1% L-Glu, 1×NEAA and 1× Na-Pyrovat at a density of 500 cells/well. Any other luminescence compatible plate format is possible. On day 2, 10 μL dilutions of the test compounds covering a concentration range between app. 0, 1 and 10.000 nM were added to the cells. Cells were incubated for 5 days in a humidified, CO2 controlled (no CO2) incubator at 37° C. On day 7 100 μL of Cell Titer Glow reagent (Cell titer Glo Luminescent Cat. No. G7571, Promega) were added to each well and incubated for additional 10 min at room temperature (with agitation). Luminescence was measured on a Wallac Victor using standard luminescence read out. IC50 values were calculated using standard Levenburg Marquard algorithms (GraphPad Prism).

A further data set has as its system MiaPaCa-2 cells. Nature of the data set: MiaPaCa-2 CTG proliferation assay (pancreatic cancer). It counts as cell-based. The following applies: Homo sapiens, MIA PaCa-2, 120 h, read-out: IC50 MiaPACA2. Here is the method:
MiaPaCa-2 CTG Proliferation Assay (Pancreatic Cancer)
MiaPaCa-2 cells (ATCC® CRM-CRL-1420™) were grown in cell culture flasks (175 cm^2) using DMEM medium supplemented with 10% fetal bovine serum. […] Materials used for the assay were CulturPlate-384, White Opaque 384-well microplate, Sterile and Tissue Culture Treated (Perkin Elmer #6007680), DMEM medium and FBS # SH30071.03 (HyClone).
as §1, with “μL DMEM medium supplemented with” for “μL L-15”, “10% FBS” for “10% FCS, 1% L-Glu, 1×NEAA and 1× Na-Pyrovat”, “humidified, incubator with 5%” for “humidified,”, “CO2” for “CO2 controlled (no CO2) incubator”, “100 μl” for “100 μL”

The test system of another data set is NCI-H358 cells. The experiment in a line: NCI-H358 CTG proliferation assay (120 h) (NSCLC). It counts as cell-based. The following applies: Homo sapiens, read-out: IC50 NCl-H358. Here is the method: NCI-H358 CTG Proliferation Assay (120 h) (NSCLC)
NCI-H358 cells (ATCC No. CRL-5807) were dispensed into white bottom opaque 96 well plates (Perkin Elmer cat no. 5680) at a density of 2000 cells per well in 100 μL RPMI-1640 ATCC-Formulation (Gibco # A10491)+10% FCS. Cells were incubated overnight at 37° C. in a humidified tissue culture incubator at 5% CO2. Compounds (10 mM stock in DMSO) were added at logarithmic dose series using the HP Digital Dispenser D300 (Tecan), normalizing for added DMSO. For the TO time point measurement, untreated cells were analyzed at the time of compound addition. Plates were incubated for 120 hours, and cell viability was measured using CellTiter-Glo luminescent cell viability reagent (Promega product code G7570). Viability (stated as percent of control) is defined as relative luminescence units RLU of each well divided by the RLU of cells in DMSO controls. IC50 values were determined from viability measurements by non-linear regression using a four parameter model.

Data set [3] concerns ERK phosphorylation in NCI-H358_Cas9_SOS2. The experiment in a line: ERK phosphorylation assay 2 (AlphaLISA SureFire Ultra p-ERK1/2), SOS2 knock-out. It counts as cell-based. The following applies: Homo sapiens, NCI-H358; assay 2 (marked with *); read-out: IC50 H358 pERK. From the text: (§2) ERK Phosphorylation Assay
(§3) Materials Used for the Assay;

Data set [4] deals with ERK phosphorylation in NCI-H358 (KRAS G12C mutation). Nature of the data set: ERK phosphorylation assay 1 (AlphaLISA SureFire Ultra p-ERK1/2). It counts as cell-based. To be noted: Homo sapiens, assay 1 (not marked with *), read-out: IC50 H358 pERK.
Excerpt: as §2, §3

Data set [5] can be described thus: Plasma protein binding (equilibrium dialysis), mouse plasma. To be noted: read-out: PPB mouse fu. The class given is in vitro ADME. Here is the method: (§4) Plasma Protein Binding (PPB)
(§5) Binding of test compound to plasma was determined using equilibrium dialysis (ED) and quantitative mass spectrometry interfaced with liquid chromatography (LC-MS). In brief, ED was performed with dialysis devices consisting of two chambers separated by a semipermeable membrane with a molecular weight cut-off of 5-10 kg/mol. One chamber was filled with commercially sourced plasma (mouse and human plasma, respectively) or serum (10% FCS in PBS) containing 1-10 μmol/L test compound and the other chamber was filled with phosphate-buffer saline (PBS) with or without dextran. The dialysis chamber was incubated for 3-5 hours at 37° C. After incubation, protein was precipitated from aliquots of each chamber and the concentration of test compound in the supernatant of the plasma-containing compartment (cplasma) and of the buffer-containing compartment (Cbuffer) was determined by LC-MS. The fraction of unbound test compound (not bound to plasma) (fu) was calculated according to the following equation: […]
(In general: Equilibrium dialysis compares concentrations on both sides of a semipermeable membrane.)

Data set [6] in a line: Plasma protein binding (equilibrium dialysis), human plasma. The class given is in vitro ADME. To be noted: read-out: PPB human fu. Here is the method: as §4, §5
A short description of data set [7]: Plasma protein binding (equilibrium dialysis), serum 10% FCS in PBS. It counts as in vitro ADME. To be noted: bovine, 10% FCS in PBS (serum), read-out: PPB 10% FCS fu. How it is done:
as §4, §5

The mark [8] stands for this setting: SW837 CTG proliferation, read-out: IC50 SW837.
[9] abbreviates: MiaPaCa-2 CTG proliferation, 5 days.

Read-outs that look alike come from different tables or passages of the source.

T1 sequence (P01116 1-169 isoform P01116-2 G12C/C51S/C80L/C118S): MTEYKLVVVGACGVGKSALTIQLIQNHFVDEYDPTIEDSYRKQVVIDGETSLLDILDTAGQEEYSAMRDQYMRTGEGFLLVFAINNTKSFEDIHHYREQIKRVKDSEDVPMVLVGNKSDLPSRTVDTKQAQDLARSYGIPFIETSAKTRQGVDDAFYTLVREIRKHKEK
Sequence of Ba/F3 cells bearing a KRAS G12C mutation (P01116 whole entry G12C): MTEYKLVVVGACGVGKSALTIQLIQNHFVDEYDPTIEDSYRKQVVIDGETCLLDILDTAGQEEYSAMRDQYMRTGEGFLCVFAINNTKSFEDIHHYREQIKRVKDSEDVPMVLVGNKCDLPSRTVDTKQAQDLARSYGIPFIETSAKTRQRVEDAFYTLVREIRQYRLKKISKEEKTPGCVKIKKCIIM

Usually IC50 stands for the point on the concentration scale where inhibition reaches its midpoint. For `C=CC(=O)N1CCN(c2cc(O[C@@H](C)[C@@H]3CCCN3C)nc(-c3cc(C4(C)CCCc5sc(N)c(C#N)c54)no3)n2)CC1` (stereo partly shown) [Ic-1], the IC50 in data set [1] (KRAS G12C::SOS1 AlphaScreen) was 3 nM; in the data set with SW837 cells (setting [8]), 1.3 nM; in the data set with MiaPaCa-2 cells (setting [9]) it was 23.8 nM; with NCI-H358 cells, 3.13 nM; in data set [3] it was 1.6 nM. Moreover, the GI50 in data set [2] was determined as 1.5 nM.

Consider `C=CC(=O)N1CCN(c2cc(O[C@@H](C)[C@@H]3CCCN3C)nc(-c3cc([C@@]4(C)CCCc5sc(N)c(C#N)c54)no3)n2)[C@H](C)C1` [Ic-2], for which the half-inhibitory concentration (IC50) was determined as 2 nM in data set [1] (KRAS G12C::SOS1 AlphaScreen); 3.67 nM in the data set with SW837 cells (setting [8]); 9.01 nM in the data set on MiaPaCa-2 cells (setting [9]); 4.75 nM with NCI-H358 cells; 3.7 nM in data set [3]. The GI50 in data set [2] is 2.3 nM.

In the case of `C=CC(=O)N1CCN(c2cc(N3CCN(C)CC3)nc(-n3cc(C4(C)CCCc5sc(N)c(C#N)c54)cn3)c2)CC1` (stereo not shown) [Ie-1], the half-inhibitory concentration (IC50) in data set [1] (KRAS G12C 7.5 nM, GST-SOS1 5 nM, GDP 10 μM) came out at 280 nM; in data set [4], 125 nM.

As to `C=CC(=O)N1CCN(c2nc(=O)n(-c3c(C)ccnc3C(C)C)c3nc(-c4c(O)cccc4F)c(F)cc23)[C@@H](C)C1` [sotorasib, reference compound], the fraction unbound in data set [5] stood at 0.094; in data set [6], 0.027; in [7] it was 0.774. The IC50 stood at 17 nM in the data set on SW837 cells (SW837, read-out: IC50 SW837) and 49 nM in the data set on MiaPaCa-2 cells.
